Experiments:
human NaV1.3 = target: T1, human NaV1.3 (Homo sapiens, UniProt Q9NY46); test: FRET assay (EFS, FDSS) on HEK293 cells expressing human NaV1.3 channels; type: cell-based; conditions: for IC50: FRET assay, HEK293 cells expressing human NaV1.3, read-out: IC50 against Nav1.3
T1 construct: expressed in transfected cells; host or cells: HEK293
Method in brief: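 Membrane potential in HEK293 cells stably expressing human NaV1.3, read by FRET (CC2-DMPE 10 µM / DiSBAC2(3) 15 µM with 0.555 mM VABSC-1) after electrical field stimulation, in HEPES-buffered saline pH 7.4. Compounds added after dye loading at room temperature. IC50 from normalized 440 nm fluorescence ratios.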

human Nav1.7 = target: T2, human Nav1.7 (Homo sapiens, UniProt Q15858); test: FRET assay (EFS, FDSS) on CHO cells expressing human NaV1.7 channels; type: cell-based; conditions: for IC50: FRET assay, CHO cells expressing human NaV1.7, read-out: IC50 against Nav1.7
T2 construct: expressed in transfected cells; host or cells: CHO
Experimental: This screen was used to determine the effects of compounds on human NaV1.3, human Nav1.7, and human Nav1.5 channels, utilising electrical field stimulation (EFS) system in 96-well plate format on FDSS (Hamamatsu Photonics) platform. The change of membrane potential was monitored with FRET dye pair, oxonol (DiSBAC2(3)) and coumarin (CC2-DMPE).
CHO cells expressing human NaV1.7 channels were grown in T225 flasks, in a 5% CO2 humidified incubator to about 80% confluence. Media composition consisted of HAM/F12 with Glutamax I, 10% FCS, 100 units/ml Penicillin and 100 microgram/ml Hygromycin.
Protocol: • Seeded each cell lines (1×10^5 cells/well) into poly-D-lysine coated 96-well plates prior to experimentation. • Incubated at 37° C. in 5% CO2 for 24 hours. • Washed each well with assay buffer (140 mM NaCl, 4.5 mM KCl, 10 mM D-Glucose, 2 mM CaCl2, 1 mM MgCl2, 10 mM HEPES, pH 7.4 adjusted with NaOH) twice. • Added 1st loading solution containing 10 microM CC2-DMPE and 0.06% Pluronic F-127 in assay buffer. • Incubated the plate at room temperature in dark for 1 hour. • Removed 1st loading solution and added 2nd loading solution containing 15 microM DiSBAC2(3), 0.555 mM VABSC-1 and 0.004% Pluronic F-127 in assay buffer. • Placed the plate under the dark at room temperature for 25 minutes. • Added compound solutions into the assay plate. • Set the assay plate in FDSS and placed an EFS device on the plate. • Measured EFS-induced fluorescent response by FDSS.
The data were analyzed and reported as normalized ratios of intensities measured at […]. The process of calculating these ratios was performed as follows:
[formula] This analysis was performed using a computerized specific program designed for FDSS generated data. Fluorescence ratio values were plotted using XLfit to determine an IC50 value for each compound.

[1] = comparison compound of WO 2008147864

T1 sequence (Q9NY46 whole entry): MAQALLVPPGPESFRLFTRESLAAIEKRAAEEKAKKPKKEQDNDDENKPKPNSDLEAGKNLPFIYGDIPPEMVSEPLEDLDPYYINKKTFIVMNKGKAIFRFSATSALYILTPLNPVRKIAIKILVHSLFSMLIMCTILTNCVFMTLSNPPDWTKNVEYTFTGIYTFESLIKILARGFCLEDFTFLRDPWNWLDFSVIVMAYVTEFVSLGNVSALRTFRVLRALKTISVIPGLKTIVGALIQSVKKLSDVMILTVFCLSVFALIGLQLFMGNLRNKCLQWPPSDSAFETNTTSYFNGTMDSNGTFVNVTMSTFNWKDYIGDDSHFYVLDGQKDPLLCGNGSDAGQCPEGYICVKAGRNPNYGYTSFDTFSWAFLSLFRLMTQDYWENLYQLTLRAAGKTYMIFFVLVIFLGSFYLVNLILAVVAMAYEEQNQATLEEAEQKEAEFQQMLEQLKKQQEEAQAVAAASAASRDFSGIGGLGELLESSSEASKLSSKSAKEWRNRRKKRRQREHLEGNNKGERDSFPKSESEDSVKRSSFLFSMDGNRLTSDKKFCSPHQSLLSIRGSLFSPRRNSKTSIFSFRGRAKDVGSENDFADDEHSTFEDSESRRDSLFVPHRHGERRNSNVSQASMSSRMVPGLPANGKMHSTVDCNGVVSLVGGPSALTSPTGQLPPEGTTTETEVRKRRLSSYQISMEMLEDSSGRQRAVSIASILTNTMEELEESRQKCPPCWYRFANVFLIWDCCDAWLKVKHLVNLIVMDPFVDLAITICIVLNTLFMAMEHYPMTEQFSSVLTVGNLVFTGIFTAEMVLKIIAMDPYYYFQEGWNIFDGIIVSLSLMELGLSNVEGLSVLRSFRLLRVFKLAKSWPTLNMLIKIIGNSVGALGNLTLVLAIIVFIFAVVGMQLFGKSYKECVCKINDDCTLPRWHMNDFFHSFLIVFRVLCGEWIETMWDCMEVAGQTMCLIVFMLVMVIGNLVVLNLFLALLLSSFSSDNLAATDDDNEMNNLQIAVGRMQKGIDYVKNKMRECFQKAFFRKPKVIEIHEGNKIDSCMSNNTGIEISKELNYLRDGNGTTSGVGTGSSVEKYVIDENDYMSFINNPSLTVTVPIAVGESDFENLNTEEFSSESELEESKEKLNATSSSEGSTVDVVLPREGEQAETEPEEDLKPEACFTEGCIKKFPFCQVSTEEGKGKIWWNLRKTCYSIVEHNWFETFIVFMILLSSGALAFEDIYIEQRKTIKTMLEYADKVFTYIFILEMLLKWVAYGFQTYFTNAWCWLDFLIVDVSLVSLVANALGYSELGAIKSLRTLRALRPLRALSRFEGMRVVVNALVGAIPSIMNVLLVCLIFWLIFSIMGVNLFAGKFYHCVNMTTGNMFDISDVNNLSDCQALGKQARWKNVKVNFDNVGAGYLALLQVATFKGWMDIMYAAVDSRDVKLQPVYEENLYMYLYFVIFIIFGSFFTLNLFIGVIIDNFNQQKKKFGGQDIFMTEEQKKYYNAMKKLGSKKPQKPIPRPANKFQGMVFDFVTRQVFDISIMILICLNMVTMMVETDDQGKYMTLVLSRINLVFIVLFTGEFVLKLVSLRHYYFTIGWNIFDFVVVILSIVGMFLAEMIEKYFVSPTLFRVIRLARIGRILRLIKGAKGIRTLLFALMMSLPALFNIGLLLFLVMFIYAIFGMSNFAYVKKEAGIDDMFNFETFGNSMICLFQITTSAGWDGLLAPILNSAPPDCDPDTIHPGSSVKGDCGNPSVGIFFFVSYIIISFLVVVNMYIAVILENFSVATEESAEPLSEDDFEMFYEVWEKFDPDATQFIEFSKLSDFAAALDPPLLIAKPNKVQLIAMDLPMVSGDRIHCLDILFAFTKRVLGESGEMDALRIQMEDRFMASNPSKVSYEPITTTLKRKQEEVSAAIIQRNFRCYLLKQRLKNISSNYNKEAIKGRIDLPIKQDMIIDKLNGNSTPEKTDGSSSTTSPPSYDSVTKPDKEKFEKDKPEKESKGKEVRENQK
T2 sequence (Q15858 whole entry): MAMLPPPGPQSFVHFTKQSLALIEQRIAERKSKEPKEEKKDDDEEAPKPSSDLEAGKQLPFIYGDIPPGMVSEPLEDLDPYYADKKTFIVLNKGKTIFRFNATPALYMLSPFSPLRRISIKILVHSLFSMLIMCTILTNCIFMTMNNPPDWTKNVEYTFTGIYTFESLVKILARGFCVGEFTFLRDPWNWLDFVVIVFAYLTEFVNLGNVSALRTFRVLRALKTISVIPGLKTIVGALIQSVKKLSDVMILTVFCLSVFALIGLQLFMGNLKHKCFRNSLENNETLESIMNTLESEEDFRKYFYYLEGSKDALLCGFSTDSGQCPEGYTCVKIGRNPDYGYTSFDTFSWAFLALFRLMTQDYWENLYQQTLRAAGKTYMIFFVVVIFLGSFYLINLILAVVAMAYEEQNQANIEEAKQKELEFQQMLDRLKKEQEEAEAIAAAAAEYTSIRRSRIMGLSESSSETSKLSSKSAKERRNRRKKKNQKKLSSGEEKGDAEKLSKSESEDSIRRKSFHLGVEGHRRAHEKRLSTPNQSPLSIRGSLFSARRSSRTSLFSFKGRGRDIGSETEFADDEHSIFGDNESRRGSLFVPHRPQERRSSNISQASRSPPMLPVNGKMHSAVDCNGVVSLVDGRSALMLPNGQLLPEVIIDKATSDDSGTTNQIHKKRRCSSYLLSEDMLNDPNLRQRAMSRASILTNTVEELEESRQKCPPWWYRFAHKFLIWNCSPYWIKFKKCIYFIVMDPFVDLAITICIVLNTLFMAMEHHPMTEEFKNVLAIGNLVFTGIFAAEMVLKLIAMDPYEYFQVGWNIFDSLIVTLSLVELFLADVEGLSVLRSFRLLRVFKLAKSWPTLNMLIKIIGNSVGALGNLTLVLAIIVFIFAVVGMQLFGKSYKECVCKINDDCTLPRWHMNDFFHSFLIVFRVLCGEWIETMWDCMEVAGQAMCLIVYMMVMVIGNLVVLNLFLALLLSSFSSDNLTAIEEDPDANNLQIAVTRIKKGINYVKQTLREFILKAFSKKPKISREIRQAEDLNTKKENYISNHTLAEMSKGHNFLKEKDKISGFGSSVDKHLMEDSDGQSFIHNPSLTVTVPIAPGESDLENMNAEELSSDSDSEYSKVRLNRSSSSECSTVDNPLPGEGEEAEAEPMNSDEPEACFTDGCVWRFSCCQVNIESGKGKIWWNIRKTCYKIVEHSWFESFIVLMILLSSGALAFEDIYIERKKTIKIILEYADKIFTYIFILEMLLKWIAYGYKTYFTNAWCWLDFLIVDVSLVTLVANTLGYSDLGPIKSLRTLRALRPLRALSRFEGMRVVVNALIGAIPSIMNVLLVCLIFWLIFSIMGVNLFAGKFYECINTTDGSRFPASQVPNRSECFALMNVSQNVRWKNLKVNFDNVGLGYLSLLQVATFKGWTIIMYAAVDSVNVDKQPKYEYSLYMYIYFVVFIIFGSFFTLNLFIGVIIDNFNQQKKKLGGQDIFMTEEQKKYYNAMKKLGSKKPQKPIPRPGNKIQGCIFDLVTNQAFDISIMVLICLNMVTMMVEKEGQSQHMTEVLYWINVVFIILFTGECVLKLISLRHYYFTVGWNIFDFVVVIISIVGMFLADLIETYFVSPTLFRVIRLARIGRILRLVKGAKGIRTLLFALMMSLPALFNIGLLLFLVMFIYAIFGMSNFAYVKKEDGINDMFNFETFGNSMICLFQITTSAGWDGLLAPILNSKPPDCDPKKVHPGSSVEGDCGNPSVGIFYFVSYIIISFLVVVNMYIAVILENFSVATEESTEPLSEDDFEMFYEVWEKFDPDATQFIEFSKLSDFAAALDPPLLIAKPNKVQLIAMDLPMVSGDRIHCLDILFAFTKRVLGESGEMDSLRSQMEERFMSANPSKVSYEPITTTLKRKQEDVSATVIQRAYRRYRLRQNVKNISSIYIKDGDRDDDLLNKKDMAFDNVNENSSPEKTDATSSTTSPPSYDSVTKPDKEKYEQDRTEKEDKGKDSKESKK

Compound	IC50 (human NaV1.3)	IC50 (human Nav1.7)	activity against NaV1.3 (human NaV1.3; [1])	activity against NaV1.7 (human Nav1.7; [1])
O=C(CCOc1ccc(F)cc1)N1CCN(c2cc(OCC(F)(F)F)ncn2)CC1 [Example 139, 3-(4-fluorophenoxy)-1-(4-(6-(2,2,2-trifluoroethoxy)pyrimidin-4-yl)piperazin-1-yl)propan-1-one]	< 3 µM	< 3 µM	–	–
CC(C)COc1cc(N2CCN(C(=O)Cn3nc4ccccc4n3)CC2)ncn1 [Example 105, 2-(2H-benzo[d][1,2,3]triazol-2-yl)-1-(4-(6-isobutoxypyrimidin-4-yl)piperazin-1-yl)ethanone]	< 3 µM	< 3 µM	–	–
O=C(c1ccc2c(=O)n(CCc3ccccc3)c(=O)[nH]c2c1)N1CCN(c2ncccn2)CC1 [3-(2-phenylethyl)-7-[(4-pyrimidin-2-ylpiperazin-1-yl)carbonyl]quinazoline-2,4(1H,3H)-dione]	–	–	no activity	no activity
CC(C)COc1cc(N2CCN(C(=O)COc3cccc4cccnc34)CC2)ncn1 [Example 77, 1-(4-(6-isobutoxypyrimidin-4-yl)piperazin-1-yl)-2-(quinolin-8-yloxy)ethanone]	< 3 µM	< 3 µM	–	–
Cc1c(C(=O)N2CCN(c3cc(OCC(C)C)ncn3)CC2)cnn1-c1ccc(F)cc1 [Example 169, (1-(4-fluorophenyl)-5-methyl-1H-pyrazol-4-yl)(4-(6-isobutoxypyrimidin-4-yl)piperazin-1-yl)methanone]	< 3 µM	< 3 µM	–	–
Cc1cccc(OCCC(=O)N2CCN(c3cc(OCC(C)C)ncn3)CC2)c1 [Example 132, 1-(4-(6-isobutoxypyrimidin-4-yl)piperazin-1-yl)-3-(m-tolyloxy)propan-1-one]	< 3 µM	< 3 µM	–	–
O=C(Cn1nc2ccccc2n1)N1CCN(c2cc(OCC(F)(F)F)ncn2)CC1 [Example 146, 2-(2H-benzo[d][1,2,3]triazol-2-yl)-1-(4-(6-(2,2,2-trifluoroethoxy)pyrimidin-4-yl)piperazin-1-yl)ethanone]	< 3 µM	< 3 µM	–	–
CC(C)COc1cc(N2CCN(C(=O)c3cc4ccccc4s3)CC2)ncn1 [Example 86]	< 3 µM	< 3 µM	–	–
CC(C)COc1cc(N2CCN(C(=O)COc3ccc(F)cc3)CC2)ncn1 [Example 24, 2-(4-fluorophenoxy)-1-(4-(6-isobutoxypyrimidin-4-yl)piperazin-1-yl)ethanone]	< 3 µM	< 3 µM	–	–
CC(C)COc1cc(N2CCN(C(=O)c3csc(Cc4ccccc4)n3)CC2)ncn1 [Example 167, (2-benzylthiazol-4-yl)(4-(6-isobutoxypyrimidin-4-yl)piperazin-1-yl)methanone]	< 3 µM	< 3 µM	–	–
CC(C)Oc1cc(N2CCN(C(=O)c3csc(-c4ccccc4)n3)CC2)ncn1 [Example 165, (4-(6-isopropoxypyrimidin-4-yl)piperazin-1-yl)(2-phenylthiazol-4-yl)methanone]	< 3 µM	< 3 µM	–	–
CC(C)COc1cc(N2CCN(C(=O)c3cc(-c4ccccc4)on3)CC2)ncn1 [Example 90]	< 3 µM	< 3 µM	–	–
CC(C)COc1cc(N2CCN(C(=O)c3nn(C)c4ccccc34)CC2)ncn1 [Example 22, (4-(6-isobutoxypyrimidin-4-yl)piperazin-1-yl)(1-methyl-1H-indazol-3-yl)methanone]	< 3 µM	< 3 µM	–	–
CC(C)COc1cc(N2CCN(C(=O)CCOc3ccc(F)cc3)CC2)ncn1 [Example 89, 3-(4-fluorophenoxy)-1-(4-(6-isobutoxypyrimidin-4-yl)piperazin-1-yl)propan-1-one]	< 3 µM	< 3 µM	–	–
CC(C)COc1cc(N2CCN(C(=O)COc3ccc(F)c4cccnc34)CC2)ncn1 [Example 129, 2-((5-fluoroquinolin-8-yl)oxy)-1-(4-(6-isobutoxypyrimidin-4-yl)piperazin-1-yl)ethanone]	< 3 µM	< 3 µM	–	–
Cc1nc(-c2cccc(C(=O)N3CCN(c4cc(OCC(C)C)ncn4)CC3)c2)cs1 [Example 187, (4-(6-isobutoxypyrimidin-4-yl)piperazin-1-yl)(3-(2-methylthiazol-4-yl)phenyl)methanone]	< 3 µM	< 3 µM	–	–
CC(C)COc1cc(N2CCN(C(=O)CSc3ccccc3)CC2)ncn1 [Example 120, 1-(4-(6-isobutoxypyrimidin-4-yl)piperazin-1-yl)-2-(phenylthio)ethanone]	< 3 µM	< 3 µM	–	–
CC(C)COc1cc(N2CCN(C(=O)c3csc(-c4ccccc4)n3)CC2)ncn1 [Example 213, (4-(6-isobutoxypyrimidin-4-yl)piperazin-1-yl)(2-phenylthiazol-4-yl)methanone]	< 3 µM	< 3 µM	–	–

Source: patent US8999974B2, “Acyl piperazine derivatives as TTX-S blockers” (Raqualia Pharma Inc., priority 2010, dated 2015)
